Measurements: US12391737B2, “Soluble NPY2 receptor agonists” (Boehringer Ingelheim International GmbH, priority 2020, dated 2025)
Each block holds one molecule with its values, some of them ahead of it.

Key:
[1] = biological target: T1, Human Neuropeptide Y2 Receptor (Homo sapiens, UniProt P49146); assay: Radioligand binding competition assay (RLB); conditions: Table 3, 125I-PYY(1-36) competition; read-out: Ki
T1 construct: purchased CHEMICON HTS066M
T1 sequence (P49146 1-381): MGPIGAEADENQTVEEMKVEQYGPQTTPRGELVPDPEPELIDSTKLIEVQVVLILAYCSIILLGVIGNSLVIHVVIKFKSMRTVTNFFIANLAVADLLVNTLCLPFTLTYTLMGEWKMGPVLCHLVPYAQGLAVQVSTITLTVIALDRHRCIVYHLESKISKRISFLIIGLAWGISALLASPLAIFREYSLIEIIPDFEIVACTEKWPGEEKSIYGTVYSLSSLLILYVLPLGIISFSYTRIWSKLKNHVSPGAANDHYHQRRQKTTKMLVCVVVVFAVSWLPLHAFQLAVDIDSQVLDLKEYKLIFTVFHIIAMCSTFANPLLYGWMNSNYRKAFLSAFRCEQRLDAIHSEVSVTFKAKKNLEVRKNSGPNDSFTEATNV
Procedure, shortened: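 Peptides were serially diluted from 1 mM DMSO stocks and competed for radioligand binding to receptor membranes (0.5 μg/well) over 2 h at room temperature, pH 7.4 HEPES buffer. Bound radioactivity on filters was counted by scintillation, and IC50 was derived by nonlinear regression.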

[2] = Solubility determination; conditions: for Sol6: pH 6; for Sol7: pH 7
Procedure, shortened: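 First, TFA-salt peptide was added to 0.1 M sodium diphosphate (pH 6.4 or 7.0) to 10 mg/ml and shaken 2 h at room temperature. Next, insoluble material was filtered off. Finally, filtrate and control, each 1 mg/ml in 50% acetonitrile, were compared by reversed-phase chromatography.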

SMILES: CC(C)CC(=O)N[C@@H](C)C(=O)N1CCC[C@H]1C(=O)N[C@@H](CCC(=O)O)C(=O)N[C@@H](CCCCNC(=O)CCCCCNC(=O)CC[C@H](NC(=O)CCCCCCCCCCCCCCCCC(=O)O)C(=O)O)C(=O)N1CCC[C@H]1C(=O)N[C@@H](CCC(=O)O)C(=O)N[C@@H](CCC(=O)O)C(=O)N[C@@H](CC(=O)O)C(=O)N[C@@H](C)C(=O)N[C@@H](CCC(=O)O)C(=O)N1CCC[C@H]1C(=O)N[C@@H](CCC(=O)O)C(=O)N[C@@H](CCC(=O)O)C(=O)N[C@@H](CO)C(=O)N[C@@H](CCC(N)=O)C(=O)N[C@@H](CCCNC(=N)N)C(=O)N[C@@H](Cc1ccc(O)cc1)C(=O)N[C@@H](Cc1ccc(O)cc1)C(=O)N[C@H](C(=O)N[C@@H](CO)C(=O)N[C@@H](CC(C)C)C(=O)N[C@@H](CCCNC(=N)N)C(=O)N[C@@H](Cc1c[nH]cn1)C(=O)N[C@@H](Cc1ccc(O)cc1)C(=O)N[C@@H](Cc1ccc(O)cc1)C(=O)N[C@@H](CC(N)=O)C(=O)N[C@@H](Cc1c[nH]c2ccccc12)C(=O)N[C@@H](CC(C)C)C(=O)N[C@H](C(=O)N[C@@H](CCCNC(=N)N)C(=O)N[C@@H](CCC(N)=O)C(=O)N[C@@H](CCCNC(=N)N)C(=O)N[C@@H](Cc1ccc(O)cc1)C(N)=O)[C@@H](C)O)C(C)C [Compound 27, N{alpha-4}-(3-methylbutanoyl)-N{epsilon-7}-(6-[(4S)-4-carboxy-4-(17-carboxyheptadecanamido)butanamido]hexanoyl)[4A,7K,9E,13E,17S,18Q,22V,28Y,30W,31L]-hPYY(4-36)]
Ki [1]: 10.5 nM
Sol6 [2]: 9.1 mg/mL
Sol7 [2]: 9.4 mg/mL

SMILES: CC(C)CC(=O)N[C@@H](C)C(=O)N1CCC[C@H]1C(=O)N[C@@H](CCC(=O)O)C(=O)N[C@@H](CCCCNC(=O)CCCCCNC(=O)CC[C@H](NC(=O)CCCCCCCCCCCCCCCCC(=O)O)C(=O)O)C(=O)N1CCC[C@H]1C(=O)N[C@@H](CCC(=O)O)C(=O)N[C@@H](CCC(=O)O)C(=O)N[C@@H](CC(=O)O)C(=O)N[C@@H](C)C(=O)N[C@@H](CCC(=O)O)C(=O)N1CCC[C@H]1C(=O)N[C@@H](CCC(=O)O)C(=O)N[C@@H](CCC(=O)O)C(=O)N[C@@H](CC(C)C)C(=O)N[C@@H](CCC(N)=O)C(=O)N[C@@H](CCCNC(=N)N)C(=O)N[C@@H](Cc1ccc(O)cc1)C(=O)N[C@@H](Cc1ccc(O)cc1)C(=O)N[C@H](C(=O)N[C@@H](CO)C(=O)N[C@@H](CC(C)C)C(=O)N[C@@H](CCCNC(=N)N)C(=O)N[C@@H](Cc1c[nH]cn1)C(=O)N[C@@H](Cc1ccc(O)cc1)C(=O)N[C@@H](Cc1ccc(O)cc1)C(=O)N[C@@H](CC(N)=O)C(=O)N[C@@H](Cc1c[nH]c2ccccc12)C(=O)N[C@@H](CC(C)C)C(=O)N[C@H](C(=O)N[C@@H](CCCNC(=N)N)C(=O)N[C@@H](CCC(N)=O)C(=O)N[C@@H](CCCNC(=N)N)C(=O)N[C@@H](Cc1ccc(O)cc1)C(N)=O)[C@@H](C)O)C(C)C [Compound 126, N{alpha-4}-(3-methylbutanoyl)-N{epsilon-7}-(6-[(4S)-4-carboxy-4-(17-carboxyheptadecanamido)butanamido]hexanoyl)-[4A,7K,9E,13E,18Q,22V,28Y,30W,31L]-hPYY(4-36)]
Ki [1]: 4.42 nM
Sol6 [2]: 9.6 mg/mL
Sol7 [2]: 8.8 mg/mL

Other lines, results leading:

Ki [1]: 2.07 nM
Sol6 [2]: 8.3 mg/mL
Sol7 [2]: 9.6 mg/mL
SMILES: CC(C)CC(=O)N[C@@H](C)C(=O)N1CCC[C@H]1C(=O)N[C@@H](C)C(=O)N[C@@H](CCCCNC(=O)CCCCCNC(=O)CC[C@H](NC(=O)CCCCCCCCCCCCCCCCC(=O)O)C(=O)O)C(=O)N1CCC[C@H]1C(=O)N[C@@H](CCC(=O)O)C(=O)N[C@@H](CCC(=O)O)C(=O)N[C@@H](CC(=O)O)C(=O)N[C@@H](C)C(=O)N[C@H](C(=O)N1CCC[C@H]1C(=O)N[C@@H](CCC(=O)O)C(=O)N[C@@H](CCC(=O)O)C(=O)N[C@@H](C)C(=O)N[C@@H](CCC(N)=O)C(=O)N[C@@H](CCCNC(=N)N)C(=O)N[C@@H](Cc1ccc(O)cc1)C(=O)N[C@@H](Cc1ccc(O)cc1)C(=O)N[C@H](C(=O)N[C@@H](CO)C(=O)N[C@@H](CC(C)C)C(=O)N[C@@H](CCCNC(=N)N)C(=O)N[C@@H](Cc1c[nH]cn1)C(=O)N[C@@H](Cc1ccc(O)cc1)C(=O)N[C@@H](Cc1ccc(O)cc1)C(=O)N[C@@H](CC(N)=O)C(=O)N[C@@H](Cc1c[nH]c2ccccc12)C(=O)N[C@@H](CC(C)C)C(=O)N[C@H](C(=O)N[C@@H](CCCNC(=N)N)C(=O)N[C@@H](CCC(N)=O)C(=O)N[C@@H](CCCNC(=N)N)C(=O)N[C@@H](Cc1ccc(O)cc1)C(N)=O)[C@@H](C)O)C(C)C)[C@@H](C)O [Compound 57, N{alpha-4}-(3-methylbutanoyl)-N{epsilon-7}-(6-[(4S)-4-carboxy-4-(17-carboxyheptadecanamido)butanamido]hexanoyl)-[4A,6A,7K,9E,13T,17A,18Q,22V,28Y,30W,31L]-hPYY(4-36)]

Ki [1]: 5.86 nM
Sol6 [2]: 9.7 mg/mL
Sol7 [2]: 10.0 mg/mL
SMILES: CC(C)CC(=O)N[C@@H](C)C(=O)N1CCC[C@H]1C(=O)N[C@@H](CCC(=O)O)C(=O)N[C@@H](CCCCNC(=O)CCCCCNC(=O)CC[C@H](NC(=O)CCCCCCCCCCCCCCCCC(=O)O)C(=O)O)C(=O)N1CCC[C@H]1C(=O)N[C@@H](CCC(=O)O)C(=O)N[C@@H](CCC(=O)O)C(=O)N[C@@H](CC(=O)O)C(=O)N[C@@H](C)C(=O)N[C@H](C(=O)N1CCC[C@H]1C(=O)N[C@@H](CCC(=O)O)C(=O)N[C@@H](CCC(=O)O)C(=O)N[C@@H](CC(C)C)C(=O)N[C@@H](CCC(N)=O)C(=O)N[C@@H](CCCNC(=N)N)C(=O)N[C@@H](Cc1ccc(O)cc1)C(=O)N[C@@H](Cc1ccc(O)cc1)C(=O)N[C@H](C(=O)NCC(=O)N[C@@H](CC(C)C)C(=O)N[C@@H](CCCNC(=N)N)C(=O)N[C@@H](Cc1c[nH]cn1)C(=O)N[C@@H](Cc1ccc(O)cc1)C(=O)N[C@@H](Cc1ccc(O)cc1)C(=O)N[C@@H](CC(N)=O)C(=O)N[C@@H](Cc1c[nH]c2ccccc12)C(=O)N[C@@H](CC(C)C)C(=O)N[C@H](C(=O)N[C@@H](CCCNC(=N)N)C(=O)N[C@@H](CCC(N)=O)C(=O)N[C@@H](CCCNC(=N)N)C(=O)N[C@@H](Cc1ccc(O)cc1)C(N)=O)[C@@H](C)O)C(C)C)[C@@H](C)O [Compound 44, N{alpha-4}-(3-methylbutanoyl)-N{epsilon-7}-(6-[(4S)-4-carboxy-4-(17-carboxyheptadecanamido)butanamido]hexanoyl)[4A,7K,9E,13T,18Q,22V,23G,28Y,30W,31L]-hPYY(4-36)]

Ki [1]: 4.33 nM
Sol6 [2]: >10.0 mg/mL
Sol7 [2]: >10.0 mg/mL
SMILES: CC[C@H](C)[C@H](NC(=O)[C@H](CCC(=O)O)NC(=O)[C@H](CCC(=O)O)NC(=O)[C@@H]1CCCN1C(=O)[C@@H](NC(=O)[C@H](C)NC(=O)[C@H](CC(=O)O)NC(=O)[C@H](CCC(=O)O)NC(=O)[C@H](CCC(=O)O)NC(=O)[C@@H]1CCCN1C(=O)[C@H](CCCCNC(=O)CCCCCNC(=O)CC[C@H](NC(=O)CCCCCCCCCCCCCCCCC(=O)O)C(=O)O)NC(=O)[C@H](CCC(=O)O)NC(=O)[C@@H]1CCCN1C(=O)[C@H](C)NC(=O)CC(C)C)[C@@H](C)O)C(=O)N[C@@H](CCC(N)=O)C(=O)N[C@@H](CCCNC(=N)N)C(=O)N[C@@H](Cc1ccc(O)cc1)C(=O)N[C@@H](Cc1ccc(O)cc1)C(=O)N[C@@H](C)C(=O)N[C@@H](CO)C(=O)N[C@@H](CC(C)C)C(=O)N[C@@H](CCCNC(=N)N)C(=O)N[C@@H](Cc1c[nH]cn1)C(=O)N[C@@H](Cc1ccc(O)cc1)C(=O)N[C@@H](Cc1ccc(O)cc1)C(=O)N[C@@H](CC(N)=O)C(=O)N[C@@H](Cc1c[nH]c2ccccc12)C(=O)N[C@@H](CC(C)C)C(=O)N[C@H](C(=O)N[C@@H](CCCNC(=N)N)C(=O)N[C@@H](CCC(N)=O)C(=O)N[C@@H](CCCNC(=N)N)C(=O)N[C@@H](Cc1ccc(O)cc1)C(N)=O)[C@@H](C)O [Compound 86, N{alpha-4}-(3-methylbutanoyl)-N{epsilon-7}-(6-[(4S)-4-carboxy-4-(17-carboxyheptadecanamido)butanamido]hexanoyl)-[4A,7K,9E,13T,17I,18Q,28Y,30W,31L]-hPYY(4-36)]
